Data set [1] has as its target Replicase polyprotein 1ab (Severe acute respiratory syndrome coronavirus 2, UniProt P0DTD1). In words: Inhibition of SARS-CoV-2 M-protease.
For data set [2], the system named is Middle East respiratory syndrome-related coronavirus. The data set is described as follows: Antiviral activity against MERS-CoV. Type of data set: functional, organism-based.
Data set [3] shares this test system. The data set is described as follows: Antiviral activity against MERS-CoV infected in 1 hr pretreated human Huh-7 cells assessed as inhibition of viral growth at 10 uM measured after 48 hrs by plaque reduction assay relative to control. In kind it is functional. To be noted: time 49 hrs. A general note: Plaque reduction counts the foci of infection that form in a cell layer.

A further data set in a line: in vitro. To be noted: human, Huh-7 cells.
Data set [4] relates to Middle East respiratory syndrome-related coronavirus. The data set is described as follows: microbe, parasite or virus in culture. To be noted: Huh-7, 72 h.
The test system of a further data set is Human coronavirus 229E. The data set is described as follows: Antiviral activity against hCoV-229e at 4 uM assessed as reduction of viral RNA relative to control. Type of data set: functional. Further details: scale not given: the % may be the effect or the level left.
Data set [5] concerns SARS-CoV-2. In kind it is functional, organism-based, Vero E6. To be noted: Severe acute respiratory syndrome coronavirus 2, Vero C1008, 72 h.
The test system of data set [6] is SARS-CoV-2. The data set is described as follows: microbe, parasite or virus in culture. To be noted: Severe acute respiratory syndrome coronavirus 2.
Data set [7] relates to SARS-CoV-2. In kind it is functional, organism-based, Vero E6. To be noted: Severe acute respiratory syndrome coronavirus 2, Vero C1008.
Data set [8] concerns SARS-CoV-2. In kind it is functional, organism-based. To be noted: Severe acute respiratory syndrome coronavirus 2, A549-ACE2.
For data set [9], the system named is SARS-CoV-2. Type of data set: functional, Severe acute respiratory syndrome coronavirus 2, Vero E6. To be noted: time 72 hrs.
The test system of another data set is Murine coronavirus. The data set is described as follows: Antiviral activity against mCoV. Type of data set: functional, organism-based.
The subject of the next data set is SARS-CoV. The data set is described as follows: Antiviral activity against SARS-CoV in 24 hrs pretreated primary human liver spheroids assessed as reduction in viral load at 400 to 500 nM measured after 48 hrs. Type of data set: functional, Severe acute respiratory syndrome-related coronavirus. Further details: scale not given: the % may be the effect or the level left. To be noted: dose 400-500 nM, time 72 hrs.

Consider 22 compounds from ChEMBL document CHEMBL5131378, “Kinases as Potential Therapeutic Targets for Anti-coronaviral Therapy” (J Med Chem, 2022).

The term IC50 denotes the concentration that gives 50% inhibition. The compound `O=C1Cc2c([nH]c3ccc(Br)cc23)-c2ccccc2N1` [KENPAULLONE] returned a half-inhibitory concentration (IC50) in data set [1] of 1500 nM.

The compound `CC(C)Cn1ncc2cc(Oc3ccc(F)cc3F)c(C(=O)NCCN(C)C)cc21` [ARRY-797] gave a half-inhibitory concentration (IC50) in data set [2] of 913 nM.

The term inhibition denotes the drop in the measured response relative to a control, in per cent. For the compound `CO[C@H]1C[C@@H]2CC[C@@H](C)[C@@](O)(O2)C(=O)C(=O)N2CCCC[C@H]2C(=O)O[C@H]([C@H](C)C[C@@H]2CC[C@@H](O)[C@H](OC)C2)CC(=O)[C@H](C)/C=C(\C)[C@@H](O)[C@@H](OC)C(=O)[C@H](C)C[C@H](C)/C=C/C=C/C=C/1C` [SIROLIMUS], the inhibition at 10 µM in data set [3] came to 40%.

One may read the CC50 as the concentration giving 50% cytotoxicity. A word on the EC50: it is the concentration needed to bring the measured effect to its halfway point. Regarding `CN1CCN(CCOc2cc(OC3CCOCC3)c3c(Nc4c(Cl)ccc5c4OCO5)ncnc3c2)CC1` [SARACATINIB], the CC50 in “in vitro” was greater than 50000 nM. In [4], this compound returned an EC50 of 2900 nM.

In the case of `C[S+]([O-])c1ccc(-c2nc(-c3ccc(F)cc3)c(-c3ccncc3)[nH]2)cc1` (configuration not stated) [SB-203580], the Activity in the data set with Human coronavirus 229E worked out at 60%.

Consider `CCCCCCCCCCCCCCCCOP(=O)([O-])OCC[N+](C)(C)C` [MILTEFOSINE], for which the inhibition at 10 µM in [3] stood at 28%.

`CNS(=O)(=O)Nc1nccc(Cc2c(C)c3ccc(Oc4ncccn4)cc3oc2=O)c1F` [AVUTOMETINIB] came in with an IC50 in the data set on SARS-CoV-2 [5] of 600 nM.

Take `CCc1nc(C(N)=O)c(Nc2ccc(N3CCC(N4CCN(C)CC4)CC3)c(OC)c2)nc1NC1CCOCC1` [GILTERITINIB]: the IC50 (in the data set on SARS-CoV-2 [6]; in data set [2]) was 807 nM throughout.

Compound `O=C(O)c1ccc2c(c1)nc(Nc1cccc(Cl)c1)c1ccncc12` [SILMITASERTIB] had an IC50 with SARS-CoV-2 [6] of 1280 nM.

Consider `Cc1cccc(/C=N/Nc2cc(N3CCOCC3)nc(OCCc3ccccn3)n2)c1` [APILIMOD], for which the IC50 is less than 80 nM with SARS-CoV-2 [7] and 7 nM with SARS-CoV-2 [8].

With `O=C1Cc2c([nH]c3ccc([N+](=O)[O-])cc23)-c2ccccc2N1` [ALSTERPAULLONE], in data set [1], half-maximal inhibition (IC50) was put at 1500 nM.

In the data set with SARS-CoV-2 [9], `CCN1CCN(Cc2ccc(Nc3ncc(F)c(-c4cc(F)c5nc(C)n(C(C)C)c5c4)n3)nc2)CC1` [ABEMACICLIB] came in with an Activity of 60%. The compound further displayed a half-maximal effective concentration (EC50) in the data set on SARS-CoV-2 [5] of 2160 nM.

`Cn1nc(C(C)(C)C)cc1NC(=O)Nc1ccc(Oc2ccncc2)cc1` registered an IC50 in [2] of 4630 nM.

Take `CC(C)=CCC[C@](C)(O)[C@H]1CC[C@]2(C)[C@@H]1[C@H](O)C[C@@H]1[C@@]3(C)CC[C@H](O)C(C)(C)[C@@H]3[C@@H](O[C@@H]3O[C@H](CO)[C@@H](O)[C@H](O)[C@H]3O[C@@H]3O[C@H](CO)[C@@H](O)[C@H](O)[C@H]3O)C[C@]12C` [GINSENOSIDE RF]: the 50% inhibitory concentration (IC50) in the data set with Murine coronavirus is 10000 nM.

Take `CCc1cnn2c(NCc3ccc[n+]([O-])c3)cc(N3CCCC[C@H]3CCO)nc12` [DINACICLIB]: the results for the IC50 with SARS-CoV-2 [7] and with SARS-CoV-2 [8] were 270 nM and 32 nM, respectively.

Consider `CO[C@H]1C[C@@H]2CC[C@@H](C)[C@@](O)(O2)C(=O)C(=O)N2CCCC[C@H]2C(=O)O[C@H]([C@H](C)C[C@@H]2CC[C@@H](OCCO)[C@H](OC)C2)CC(=O)[C@H](C)/C=C(\C)[C@@H](O)[C@@H](OC)C(=O)[C@H](C)C[C@H](C)/C=C/C=C/C=C/1C` [EVEROLIMUS], for which, in [3], the inhibition at 10 µM was found to be 56%.

As to `COC[C@H]1OC(=O)c2coc3c2[C@@]1(C)C1=C(C3=O)[C@@H]2CCC(=O)[C@@]2(C)C[C@H]1OC(C)=O` [WORTMANNIN], the inhibition at 10 µM in data set [3] turned out to be 40%.

As to `NC(=O)N1CCC(CC(=O)N2CCC([C@H]3c4ncc(Br)cc4CCc4cc(Cl)cc(Br)c43)CC2)CC1` [LONAFARNIB], in the data set on SARS-CoV-2 [5], the IC50 turned out to be 4990 nM.

`COc1ncc(-c2ccc3nccc(-c4ccnnc4)c3c2)cc1NS(=O)(=O)c1ccc(F)cc1F` [OMIPALISIB] yielded an IC50 in the data set with SARS-CoV-2 [5] of 14 nM.

In turn, `CC(C)(C)Cn1c(N)nc2ccc(-c3[nH]c(C(C)(C)C)nc3-c3ccc(F)cc3)nc21` [RALIMETINIB] registered an IC50 in data set [2] of 873 nM.

`C=CC(=O)Nc1cc(Nc2nccc(-c3cn(C)c4ccccc34)n2)c(OC)cc1N(C)CCN(C)C` [OSIMERTINIB] showed an IC50 in the data set on SARS-CoV-2 [5] of 3980 nM.

As for `CCS(=O)(=O)N1CC(CC#N)(n2cc(-c3ncnc4[nH]ccc34)cn2)C1` [BARICITINIB], the Activity in the data set on SARS-CoV turned out to be 30%.
